# According to PubChem BioAssay (NCI):
#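 Grown in 96-well plates, cells were treated for 48 hours with each compound at five concentrations. Insufficient inhibition: endpoint recorded as highest concentration tested. TGI is the concentration that stops growth completely.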
# Legend:
# Assay in all cases: growth of human tumour cells (NCI), 48 h
# 786-0 renal = tested on: 786-0 renal
# A549 NSCLC = tested on: A549 NSCLC
# ACHN renal = tested on: ACHN renal
# BT-549 breast = tested on: BT-549 breast
# CAKI-1 renal = tested on: CAKI-1 renal
# CCRF-CEM leukemia = tested on: CCRF-CEM leukemia
# COLO 205 colon = tested on: COLO 205 colon
# DU-145 prostate = tested on: DU-145 prostate
# HCC-2998 colon = tested on: HCC-2998 colon
# HCT-116 colon = tested on: HCT-116 colon
# HCT-15 colon = tested on: HCT-15 colon
# HL-60(TB) leukemia = tested on: HL-60(TB) leukemia
# HOP-62 NSCLC = tested on: HOP-62 NSCLC
# HOP-92 NSCLC = tested on: HOP-92 NSCLC
# HS 578T breast = tested on: HS 578T breast
# HT29 colon = tested on: HT29 colon
# IGROV1 ovarian = tested on: IGROV1 ovarian
# K-562 leukemia = tested on: K-562 leukemia
# KM12 colon = tested on: KM12 colon
# LOX IMVI melanoma = tested on: LOX IMVI melanoma
# M14 melanoma = tested on: M14 melanoma
# MALME-3M melanoma = tested on: MALME-3M melanoma
# MDA-MB-231 breast = tested on: MDA-MB-231 breast
# MDA-MB-435 = tested on: MDA-MB-435
# MDA-N = tested on: MDA-N
# MOLT-4 leukemia = tested on: MOLT-4 leukemia
# NCI-H23 lung = tested on: NCI-H23 lung
# NCI-H460 lung = tested on: NCI-H460 lung
# NCI/ADR-RES ovarian = tested on: NCI/ADR-RES ovarian
# OVCAR-3 ovarian = tested on: OVCAR-3 ovarian
# OVCAR-4 ovarian = tested on: OVCAR-4 ovarian
# OVCAR-5 ovarian = tested on: OVCAR-5 ovarian
# OVCAR-8 ovarian = tested on: OVCAR-8 ovarian
# PC-3 prostate = tested on: PC-3 prostate
# RPMI-8226 leukemia = tested on: RPMI-8226 leukemia
# SF-295 CNS = tested on: SF-295 CNS
# SF-539 CNS = tested on: SF-539 CNS
# SK-MEL-2 melanoma = tested on: SK-MEL-2 melanoma
# SK-MEL-28 melanoma = tested on: SK-MEL-28 melanoma
# SK-OV-3 ovarian = tested on: SK-OV-3 ovarian
# SN12C renal = tested on: SN12C renal
# SNB-75 CNS = tested on: SNB-75 CNS
# SR leukemia = tested on: SR leukemia
# SW-620 colon = tested on: SW-620 colon
# TK-10 renal = tested on: TK-10 renal
# U251 CNS = tested on: U251 CNS
# UACC-257 melanoma = tested on: UACC-257 melanoma
# UACC-62 melanoma = tested on: UACC-62 melanoma
# UO-31 renal = tested on: UO-31 renal
# A498 renal = tested on: A498 renal
# EKVX NSCLC = tested on: EKVX NSCLC
# MCF7 breast = tested on: MCF7 breast
# NCI-H226 lung = tested on: NCI-H226 lung
# RXF 393 renal = tested on: RXF 393 renal
# SK-MEL-5 melanoma = tested on: SK-MEL-5 melanoma
# SNB-19 CNS = tested on: SNB-19 CNS
# NCI-H522 lung = tested on: NCI-H522 lung
# SF-268 CNS = tested on: SF-268 CNS
# T-47D breast = tested on: T-47D breast
smiles,measurement,setting,value
c1ccc(CN2CCC3(CC2)SSC2(CCN(Cc4ccccc4)CC2)S3)cc1,TGI,786-0 renal,> 100 µM
same,TGI,A549 NSCLC,> 100 µM
same,TGI,ACHN renal,> 100 µM
same,TGI,BT-549 breast,> 100 µM
same,TGI,CAKI-1 renal,85.5 µM
same,TGI,CCRF-CEM leukemia,> 100 µM
same,TGI,COLO 205 colon,33.3 µM
same,TGI,DU-145 prostate,> 100 µM
same,TGI,HCC-2998 colon,93.6 µM
same,TGI,HCT-116 colon,> 100 µM
same,TGI,HCT-15 colon,> 100 µM
same,TGI,HL-60(TB) leukemia,> 100 µM
same,TGI,HOP-62 NSCLC,> 100 µM
same,TGI,HOP-92 NSCLC,> 100 µM
same,TGI,HS 578T breast,> 100 µM
same,TGI,HT29 colon,43.5 µM
same,TGI,IGROV1 ovarian,> 100 µM
same,TGI,K-562 leukemia,> 100 µM
same,TGI,KM12 colon,> 100 µM
same,TGI,LOX IMVI melanoma,> 100 µM
same,TGI,M14 melanoma,> 100 µM
same,TGI,MALME-3M melanoma,> 100 µM
same,TGI,MDA-MB-231 breast,> 100 µM
same,TGI,MDA-MB-435,> 100 µM
same,TGI,MDA-N,> 100 µM
same,TGI,MOLT-4 leukemia,> 100 µM
same,TGI,NCI-H23 lung,> 100 µM
same,TGI,NCI-H460 lung,84.6 µM
same,TGI,NCI/ADR-RES ovarian,> 100 µM
same,TGI,OVCAR-3 ovarian,> 100 µM
same,TGI,OVCAR-4 ovarian,> 100 µM
same,TGI,OVCAR-5 ovarian,> 100 µM
same,TGI,OVCAR-8 ovarian,> 100 µM
same,TGI,PC-3 prostate,> 100 µM
same,TGI,RPMI-8226 leukemia,98.4 µM
same,TGI,SF-295 CNS,83.9 µM
same,TGI,SF-539 CNS,> 100 µM
same,TGI,SK-MEL-2 melanoma,> 100 µM
same,TGI,SK-MEL-28 melanoma,> 100 µM
same,TGI,SK-OV-3 ovarian,> 100 µM
same,TGI,SN12C renal,> 100 µM
same,TGI,SNB-75 CNS,> 100 µM
same,TGI,SR leukemia,> 100 µM
same,TGI,SW-620 colon,> 100 µM
same,TGI,TK-10 renal,> 100 µM
same,TGI,U251 CNS,> 100 µM
same,TGI,UACC-257 melanoma,> 100 µM
same,TGI,UACC-62 melanoma,> 100 µM
same,TGI,UO-31 renal,> 100 µM
CCOC(=O)c1c(N)sc2c1C(C)(C(=O)OCC)CC2 (configuration not stated),TGI,786-0 renal,> 100 µM
same,TGI,A498 renal,83 µM
same,TGI,A549 NSCLC,> 100 µM
same,TGI,ACHN renal,> 100 µM
same,TGI,BT-549 breast,> 100 µM
same,TGI,COLO 205 colon,> 100 µM
same,TGI,EKVX NSCLC,> 100 µM
same,TGI,HCC-2998 colon,> 100 µM
same,TGI,HCT-116 colon,> 100 µM
same,TGI,HCT-15 colon,> 100 µM
same,TGI,HL-60(TB) leukemia,> 100 µM
same,TGI,HOP-62 NSCLC,> 100 µM
same,TGI,HOP-92 NSCLC,> 100 µM
same,TGI,HS 578T breast,> 100 µM
same,TGI,HT29 colon,> 100 µM
same,TGI,IGROV1 ovarian,> 100 µM
same,TGI,K-562 leukemia,> 100 µM
same,TGI,KM12 colon,> 100 µM
same,TGI,M14 melanoma,> 100 µM
same,TGI,MALME-3M melanoma,> 100 µM
same,TGI,MCF7 breast,> 100 µM
same,TGI,MDA-MB-231 breast,> 100 µM
same,TGI,MDA-N,> 100 µM
same,TGI,MOLT-4 leukemia,> 100 µM
same,TGI,NCI-H226 lung,> 100 µM
same,TGI,NCI-H23 lung,> 100 µM
same,TGI,NCI-H460 lung,> 100 µM
same,TGI,OVCAR-5 ovarian,> 100 µM
same,TGI,OVCAR-8 ovarian,> 100 µM
same,TGI,PC-3 prostate,> 100 µM
same,TGI,RPMI-8226 leukemia,> 100 µM
same,TGI,RXF 393 renal,> 100 µM
same,TGI,SK-MEL-2 melanoma,> 100 µM
same,TGI,SK-MEL-28 melanoma,> 100 µM
same,TGI,SK-MEL-5 melanoma,> 100 µM
same,TGI,SN12C renal,> 100 µM
same,TGI,SNB-19 CNS,> 100 µM
same,TGI,SNB-75 CNS,> 100 µM
same,TGI,SR leukemia,> 100 µM
same,TGI,SW-620 colon,> 100 µM
same,TGI,TK-10 renal,> 100 µM
same,TGI,U251 CNS,> 100 µM
same,TGI,UACC-257 melanoma,> 100 µM
same,TGI,UACC-62 melanoma,> 100 µM
same,TGI,UO-31 renal,> 100 µM
O=C1NC(=S)N/C1=C\c1ccc(Br)s1,TGI,786-0 renal,> 100 µM
same,TGI,A498 renal,> 100 µM
same,TGI,ACHN renal,> 100 µM
same,TGI,BT-549 breast,> 100 µM
same,TGI,CAKI-1 renal,> 100 µM
same,TGI,CCRF-CEM leukemia,> 100 µM
same,TGI,COLO 205 colon,> 100 µM
same,TGI,DU-145 prostate,> 100 µM
same,TGI,EKVX NSCLC,> 100 µM
same,TGI,HCC-2998 colon,> 100 µM
same,TGI,HCT-116 colon,> 100 µM
same,TGI,HCT-15 colon,> 100 µM
same,TGI,HL-60(TB) leukemia,> 100 µM
same,TGI,HOP-62 NSCLC,> 100 µM
same,TGI,HOP-92 NSCLC,> 100 µM
same,TGI,HS 578T breast,> 100 µM
same,TGI,HT29 colon,> 100 µM
same,TGI,IGROV1 ovarian,> 100 µM
same,TGI,K-562 leukemia,> 100 µM
same,TGI,KM12 colon,> 100 µM
same,TGI,LOX IMVI melanoma,> 100 µM
same,TGI,MALME-3M melanoma,> 100 µM
same,TGI,MCF7 breast,> 100 µM
same,TGI,MDA-MB-231 breast,> 100 µM
same,TGI,MDA-MB-435,> 100 µM
same,TGI,MDA-N,> 100 µM
same,TGI,MOLT-4 leukemia,> 100 µM
same,TGI,NCI-H226 lung,> 100 µM
same,TGI,NCI-H23 lung,> 100 µM
same,TGI,NCI-H460 lung,> 100 µM
same,TGI,NCI-H522 lung,> 100 µM
same,TGI,OVCAR-3 ovarian,> 100 µM
same,TGI,OVCAR-4 ovarian,> 100 µM
same,TGI,OVCAR-5 ovarian,> 100 µM
same,TGI,PC-3 prostate,> 100 µM
same,TGI,RPMI-8226 leukemia,81.3 µM
same,TGI,RXF 393 renal,> 100 µM
same,TGI,SF-268 CNS,> 100 µM
same,TGI,SF-295 CNS,> 100 µM
same,TGI,SK-MEL-2 melanoma,> 100 µM
same,TGI,SK-MEL-28 melanoma,> 100 µM
same,TGI,SK-MEL-5 melanoma,> 100 µM
same,TGI,SK-OV-3 ovarian,> 100 µM
same,TGI,SN12C renal,> 100 µM
same,TGI,SNB-19 CNS,> 100 µM
same,TGI,SR leukemia,> 100 µM
same,TGI,SW-620 colon,> 100 µM
same,TGI,TK-10 renal,> 100 µM
same,TGI,U251 CNS,> 100 µM
same,TGI,UACC-257 melanoma,> 100 µM
same,TGI,UACC-62 melanoma,> 100 µM
same,TGI,UO-31 renal,> 100 µM
CCOP(=O)(OCC)C(C)(CC)N/C(=N/C(NC(C)=O)(C(F)(F)F)C(F)(F)F)NC1=NC(C(F)(F)F)(C(F)(F)F)N=C(C(F)(F)F)O1 (configuration not stated),TGI,786-0 renal,> 100 µM
same,TGI,A498 renal,> 100 µM
same,TGI,A549 NSCLC,> 100 µM
same,TGI,ACHN renal,> 100 µM
same,TGI,CAKI-1 renal,> 100 µM
same,TGI,CCRF-CEM leukemia,> 100 µM
same,TGI,COLO 205 colon,29.8 µM
same,TGI,DU-145 prostate,> 100 µM
same,TGI,EKVX NSCLC,> 100 µM
same,TGI,HCC-2998 colon,> 100 µM
same,TGI,HCT-116 colon,> 100 µM
same,TGI,HCT-15 colon,> 100 µM
same,TGI,HL-60(TB) leukemia,45.8 µM
same,TGI,HOP-62 NSCLC,> 100 µM
same,TGI,HOP-92 NSCLC,63.9 µM
same,TGI,HS 578T breast,> 100 µM
same,TGI,HT29 colon,> 100 µM
same,TGI,IGROV1 ovarian,> 100 µM
same,TGI,K-562 leukemia,> 100 µM
same,TGI,KM12 colon,> 100 µM
same,TGI,LOX IMVI melanoma,> 100 µM
same,TGI,M14 melanoma,64.7 µM
same,TGI,MALME-3M melanoma,58.2 µM
same,TGI,MCF7 breast,68.8 µM
same,TGI,MDA-MB-231 breast,48.7 µM
same,TGI,MDA-MB-435,> 100 µM
same,TGI,MDA-N,> 100 µM
same,TGI,MOLT-4 leukemia,45.3 µM
same,TGI,NCI-H226 lung,70.1 µM
same,TGI,NCI-H23 lung,91.5 µM
same,TGI,NCI-H460 lung,> 100 µM
same,TGI,NCI-H522 lung,77.7 µM
same,TGI,NCI/ADR-RES ovarian,47.4 µM
same,TGI,OVCAR-3 ovarian,> 100 µM
same,TGI,OVCAR-4 ovarian,84.2 µM
same,TGI,OVCAR-5 ovarian,> 100 µM
same,TGI,OVCAR-8 ovarian,> 100 µM
same,TGI,PC-3 prostate,77.6 µM
same,TGI,RPMI-8226 leukemia,73.7 µM
same,TGI,RXF 393 renal,93.8 µM
same,TGI,SF-268 CNS,> 100 µM
same,TGI,SF-295 CNS,82.8 µM
same,TGI,SF-539 CNS,> 100 µM
same,TGI,SK-MEL-2 melanoma,62.3 µM
same,TGI,SK-MEL-28 melanoma,> 100 µM
same,TGI,SK-MEL-5 melanoma,31.9 µM
same,TGI,SK-OV-3 ovarian,> 100 µM
same,TGI,SN12C renal,> 100 µM
same,TGI,SNB-19 CNS,> 100 µM
same,TGI,SNB-75 CNS,27.2 µM
same,TGI,SW-620 colon,> 100 µM
same,TGI,T-47D breast,> 100 µM
same,TGI,TK-10 renal,> 100 µM
same,TGI,U251 CNS,> 100 µM
same,TGI,UACC-257 melanoma,94.8 µM
same,TGI,UACC-62 melanoma,> 100 µM
